The record followed here is US20250163038A1, “CBL-B MODULATORS AND USES THEREOF” (Nimbus Clio, Inc., priority 2021, published 2025).

Test [1] has as its target T1, Recombinant human c-Cbl (aa 47-435) (Homo sapiens, UniProt P22681).
T1 sequence (P22681 47-435): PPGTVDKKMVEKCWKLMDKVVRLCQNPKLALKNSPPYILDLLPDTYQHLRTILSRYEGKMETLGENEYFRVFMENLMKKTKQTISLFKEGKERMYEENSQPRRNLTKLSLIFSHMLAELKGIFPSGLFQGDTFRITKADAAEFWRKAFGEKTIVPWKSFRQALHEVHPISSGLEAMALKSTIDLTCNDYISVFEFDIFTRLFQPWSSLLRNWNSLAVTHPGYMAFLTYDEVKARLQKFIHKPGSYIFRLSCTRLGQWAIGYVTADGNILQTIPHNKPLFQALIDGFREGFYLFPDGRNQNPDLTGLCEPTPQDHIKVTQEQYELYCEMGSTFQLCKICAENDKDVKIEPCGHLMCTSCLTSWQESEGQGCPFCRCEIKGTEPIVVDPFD
The test can be described thus: c-Cbl Biochemical Assay (TR-FRET). Particulars: hc-Cbl Biochemical Assay (TR-FRET); read-out: TR-FRET hcCbl IC50.

Test [2] has as its system Jurkat (clone E6-1) cells with NFAT luciferase reporter. The test can be described thus: Jurkat reporter assay (NFAT Luciferase). It counts as cell-based. The settings on record: Homo sapiens; Jurkat NFAT luciferase reporter cells, anti-CD3 stimulation, 6 hr; read-out: Jurkat NFAT EC50.
Test [3] concerns the target Recombinant human Cbl-b (aa 36-427) (Homo sapiens, UniProt Q13191). In words: Cbl-b Biochemical Assay (TR-FRET). The settings on record: read-out: TR-FRET hCbl-b IC50.

pEC50, pIC50: −log10 of the molar value.

Sequence of Recombinant human Cbl-b (aa 36-427) (Q13191 36-427): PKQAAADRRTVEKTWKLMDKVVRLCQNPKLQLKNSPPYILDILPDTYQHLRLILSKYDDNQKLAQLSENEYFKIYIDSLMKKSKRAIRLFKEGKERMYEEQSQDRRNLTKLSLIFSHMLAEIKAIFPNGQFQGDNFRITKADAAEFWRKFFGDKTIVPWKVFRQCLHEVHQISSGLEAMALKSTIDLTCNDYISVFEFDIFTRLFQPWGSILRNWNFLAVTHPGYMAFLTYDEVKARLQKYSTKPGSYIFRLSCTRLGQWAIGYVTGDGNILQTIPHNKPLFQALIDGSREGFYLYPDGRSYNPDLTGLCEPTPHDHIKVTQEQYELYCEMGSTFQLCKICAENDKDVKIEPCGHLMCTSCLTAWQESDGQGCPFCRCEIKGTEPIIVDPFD

For the compound `Cc1cc(CO)cc2nc(-c3cc(-c4ccc(F)cc4-c4nncn4C)cc(C4CC4)n3)oc12` [AET-1, (2-{6-Cyclopropyl-4-[4-fluoro-2-(4-methyl-1,2,4-triazol-3-yl)phenyl]pyridin-2-yl}-7-methyl-1,3-benzoxazol-5-yl)methanol], the results for the pIC50 in test [1] and in test [3] were 5.00 to 6.00 and 6.00 to 6.70, respectively. The pEC50 in test [2] was 5.00 to 6.00.
Consider `C[C@@H]1CN(Cc2cc(C(F)(F)F)c3[nH]c(-c4cccc(-c5ccc(F)cc5-c5nncn5C)c4)nc3c2)CCO1` [BL-2, (R)-4-((2-(4′-Fluoro-2′-(4-methyl-4H-1,2,4-triazol-3-yl)-[1,1′-biphenyl]-3-yl)-7-(trifluoromethyl)-1H-benzo[d]imidazol-5-yl)methyl)-2-methylmorpholine], for which the pIC50 in test [1] was 5.00 to 6.00; in test [3], more than 6.70. Also, in test [2], the pEC50 is 5.00 to 6.00.
For the compound `CC(NCC1(O)CCC1)c1cc(F)c2oc(-c3cc(-c4ccc(F)cc4-c4nncn4C)cc(C4CC4)n3)nc2c1` (stereo in doubt) [AFQ-6, 1-({[(1S)-1-(2-{6-Cyclopropyl-4-[4-fluoro-2-(4-methyl-1,2,4-triazol-3-yl)phenyl]pyridin-2-yl}-7-fluoro-1,3-benzoxazol-5-yl)ethyl]amino}methyl)cyclobutan-1-ol], the negative-log IC50 (pIC50) in test [1] and in test [3] was more than 6.70 throughout. Further, the pEC50 in test [2] is more than 6.70.
As to `Cn1cnnc1-c1cc(F)ccc1-c1cccc(-c2nc3cc(CN[C@@H]4C[C@H](O)C4(C)C)cc(C(F)(F)F)c3o2)c1` [GP-2, (1S,3R)-3-(((2-(4′-Fluoro-2′-(4-methyl-4H-1,2,4-triazol-3-yl)-[1,1′-biphenyl]-3-yl)-7-(trifluoromethyl)benzo[d]oxazol-5-yl)methyl)amino)-2,2-dimethylcyclobutan-1-ol, Formic Acid], the negative-log IC50 (pIC50) in test [1] and in test [3] was more than 6.70 throughout. Further, the negative-log EC50 (pEC50) in test [2] was 6.00 to 6.70.
With `Cn1cnnc1-c1cc(F)ccc1-c1cccc(-c2nc3cc(CN[C@@H]4CCC[C@@]4(C)O)cc(C(F)(F)F)c3o2)c1` [DP-5, (1R,2R)-2-(((2-(4′-Fluoro-2′-(4-methyl-4H-1,2,4-triazol-3-yl)-[1,1′-biphenyl]-3-yl)-7-(trifluoromethyl)benzo[d]oxazol-5-yl)methyl)amino)-1-methylcyclopentan-1-ol], the negative-log IC50 (pIC50) in test [1] and in test [3] was more than 6.70 throughout. The pEC50 in test [2] is 6.00 to 6.70.
As for `Cn1cnnc1-c1cc(F)ccc1-c1cccc(-c2nc3cc(CNCC4(O)CC4)cc(C(F)(F)F)c3[nH]2)c1` [BV-1, 1-((((2-(4′-Fluoro-2′-(4-methyl-4H-1,2,4-triazol-3-yl)-[1,1′-biphenyl]-3-yl)-7-(trifluoromethyl)-1H-benzo[d]imidazol-5-yl)methyl)amino)methyl)cyclopropan-1-ol], the pIC50 in test [1] was 5.00 to 6.00; in test [3], more than 6.70. For the same compound, the negative-log EC50 (pEC50) in test [2] is 6.00 to 6.70.
Taken in the same sequence, the figures for `Cn1cnnc1-c1cc(F)ccc1-c1cccc(-c2nc3ccc(CN[C@@H]4CCC[C@@H]4O)cc3o2)c1` [DD-2, (1S,2R)-2-(((2-(4′-Fluoro-2′-(4-methyl-4H-1,2,4-triazol-3-yl)-[1,1′-biphenyl]-3-yl)benzo[d]oxazol-6-yl)methyl)amino)cyclopentan-1-ol] were 6.00 to 6.70, more than 6.70 and 5.00 to 6.00.
Regarding `C[C@H]1CCCN(Cc2cc(F)c3oc(-c4cc(-c5ccc(C#N)cc5-c5nncn5C)cc(C5CC5)n4)nc3c2)C1` [AGI-1, 4-[2-Cyclopropyl-6-(7-fluoro-5-{[(3S)-3-methylpiperidin-1-yl]methyl}-1,3-benzoxazol-2-yl)pyridin-4-yl]-3-(4-methyl-1,2,4-triazol-3-yl)benzonitrile], the pIC50 in test [1] and in test [3] was more than 6.70 in each case. Besides, in test [2], the negative logarithm of the EC50 (pEC50) is more than 6.70.
For `Cn1cnnc1-c1cc(F)ccc1-c1cccc(-c2nc3cc(CN[C@]4(C)CCC[C@@H]4O)cc(C(F)(F)F)c3o2)c1` (racemic) [IM-8, rac-(1S,2R)-2-(((2-(4′-fluoro-2′-(4-methyl-4H-1,2,4-triazol-3-yl)-[1,1′-biphenyl]-3-yl)-7-(trifluoromethyl)benzo[d]oxazol-5-yl)methyl)amino)-2-methylcyclopentan-1-ol], the negative-log IC50 (pIC50) in test [1] and in test [3] was more than 6.70 each time. Besides, in test [2], the negative logarithm of the EC50 (pEC50) was more than 6.70.
On to `C[C@H](c1cc(C(F)(F)F)c2oc(-c3cccc(C4(Cc5nncn5C)COC4)c3)nc2c1)N1CCC2(CC2)C1` [AAD-1, 5-[(1R)-1-{5-azaspiro[2.4]heptan-5-yl}ethyl]-2-(3-{3-[(4-methyl-1,2,4-triazol-3-yl)methyl]oxetan-3-yl}phenyl)-7-(trifluoromethyl)-1,3-benzoxazole], for which the negative-log IC50 (pIC50) in test [1] was 5.00 to 6.00; in test [3], more than 6.70. In addition, the pEC50 in test [2] was 6.00 to 6.70.
For the compound `Cn1cnnc1-c1cc(F)ccc1-c1cccc(-c2nc3cc(CN4CCCC[C@H]4CO)cc(C(F)(F)F)c3o2)c1` [JB-2, (S)-(1-((2-(4′-Fluoro-2′-(4-methyl-4H-1,2,4-triazol-3-yl)-[1,1′-biphenyl]-3-yl)-7-(trifluoromethyl)benzo[d]oxazol-5-yl)methyl)piperidin-2-yl)methanol], the results for the pIC50 in test [1] and in test [3] were 5.00 to 6.00 and more than 6.70, respectively. The pEC50 in test [2] is 5.00 to 6.00.
Regarding `CCNc1cc(-c2ccc(F)cc2-c2nncn2C)cc(-c2nc3cc(CO)cc(C(F)(F)F)c3o2)n1` [AEL-1, {2-[6-(Ethylamino)-4-[4-fluoro-2-(4-methyl-1,2,4-triazol-3-yl)-phenyl]-pyridin-2-yl]-7-(trifluoromethyl)-1,3-benzoxazol-5-yl}-methanol], the pIC50 in test [1] and in test [3] was 6.00 to 6.70 each time. The negative logarithm of the EC50 (pEC50) in test [2] was 4.30 to 5.00.
As to `Cn1cnnc1CC1(c2cccc(-c3nc4cc(CN5CCC6(CC6)C5)cc(C(F)(F)F)c4[nH]3)c2)COC1` [ABK-1, 5-((5-Azaspiro[2.4]heptan-5-yl)methyl)-2-(3-(3-((4-methyl-4H-1,2,4-triazol-3-yl)methyl)oxetan-3-yl)phenyl)-7-(trifluoromethyl)-1H-benzo[d]imidazole], the results for the negative logarithm of the IC50 (pIC50) in test [1] and in test [3] were 5.00 to 6.00 and 6.00 to 6.70, respectively. Also, the negative-log EC50 (pEC50) in test [2] is 5.00 to 6.00.
For the compound `COCCNCc1cc(C(F)(F)F)c2oc(-c3cc(-c4ccc(F)cc4-c4nncn4C)cc(C4CC4)n3)nc2c1` [ADS-1, N-((2-(6-Cyclopropyl-4-(4-fluoro-2-(4-methyl-4H-1,2,4-triazol-3-yl)phenyl)pyridin-2-yl)-7-(trifluoromethyl)benzo[d]oxazol-5-yl)methyl)-2-methoxyethan-1-amine], the pIC50 in test [1] and in test [3] was more than 6.70 in each case. The pEC50 in test [2] was more than 6.70.
As to `C[C@H]1CCCN(Cc2cc(C(F)(F)F)c3oc(-c4cccc([C@]5(c6nncn6C)C[C@@H](C)C5)c4)nc3c2)C1` [AAY-2, 5-{[(3S)-3-Methylpiperidin-1-yl]methyl}-2-{3-[(1r,3s)-3-methyl-1-(4-methyl-1,2,4-triazol-3-yl)cyclobutyl]phenyl}-7-(trifluoromethyl)-1,3-benzoxazole], the pIC50 in test [1] is 5.00 to 6.00; in test [3] it was more than 6.70. Further, the negative-log EC50 (pEC50) in test [2] was 5.00 to 6.00.
Take `COc1cc(CNCC2CCCC2)cc2nc(-c3cccc(-c4ccc(F)cc4-c4nncn4C)c3)oc12` [FN-1, 1-Cyclopentyl-N-((2-(4′-fluoro-2′-(4-methyl-4H-1,2,4-triazol-3-yl)-[1,1′-biphenyl]-3-yl)-7-methoxybenzo[d]oxazol-5-yl)methyl)methanamine]: the pIC50 in test [1] and in test [3] was more than 6.70 throughout. The pEC50 in test [2] is more than 6.70.
For `COC(=O)C1(c2cc(F)c3oc(-c4cc(-c5ccc(F)cc5-c5nncn5C)cc(C5CC5)n4)nc3c2)CC1` [AGM-8, Methyl 1-(2-{6-cyclopropyl-4-[4-fluoro-2-(4-methyl-1,2,4-triazol-3-yl)phenyl]pyridin-2-yl}-7-fluoro-1,3-benzoxazol-5-yl) cyclopropane-1-carboxylate], the pIC50 was 5.00 to 6.00 in test [1] and 6.00 to 6.70 in test [3]. Further, in test [2], the pEC50 was 5.00 to 6.00.
As for `CN(Cc1cc(C(F)(F)F)c2[nH]c(-c3cccc(-c4ccc(F)cc4-c4nncn4C)c3)nc2c1)[C@@H]1CCC[C@@H]1O` [ID-3, (1S,2R)-2-(((2-(4′-Fluoro-2′-(4-methyl-4H-1,2,4-triazol-3-yl)-[1,1′-biphenyl]-3-yl)-7-(trifluoromethyl)-1H-benzo[d]imidazol-5-yl)methyl)(methyl)amino)cyclopentan-1-ol], the pIC50 in test [1] and in test [3] was more than 6.70 in each case. The pEC50 in test [2] is more than 6.70.
As to `COCC1(CNCc2cc(C(F)(F)F)c3oc(-c4cccc(-c5ccc(F)cc5-c5nncn5C)c4)nc3c2)CCCC1` [FC-2, 1-(2-(4′-Fluoro-2′-(4-methyl-4H-1,2,4-triazol-3-yl)-[1,1′-biphenyl]-3-yl)-7-(trifluoromethyl)benzo[d]oxazol-5-yl)-N-((1-(methoxymethyl)cyclopentyl)methyl)methanamine], the pIC50 in test [1] and in test [3] was more than 6.70 each time. Moreover, the pEC50 in test [2] was 6.00 to 6.70.
